Our source for the inhibition and inhibitory rate values is patent US10696651B2, “Heterocyclic compound” (Takeda Pharmaceutical Company Limited, priority 2016, dated 2020).

Read-outs that look alike come from different tables or passages of the source.

Test [1] deals with T1, human GCN2 full-length protein (Homo sapiens, UniProt Q9P2K8).
T1 construct: purchased Carna Biosciences, Inc
Description: GCN2 enzyme inhibition assay (LanthaScreen TR-FRET). The test is classed as biochemical. The note with it: GCN2 enzyme inhibitory activity at compound concentration of 3 μM, read-out: inhibitory rate. A digest of the protocol: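 Full-length human GCN2 was preincubated with compound for 1 hr at room temperature, then reacted for 1 hr with substrate and ATP added from a 570 μM ATP / 390 nM substrate solution (stock concentrations). Phosphorylation was detected by TR-FRET with a terbium-labelled anti-eIF2alpha antibody after 1 hr, with enzyme-free wells as control.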

The test system of test [2] is osteosarcoma cell line U-2-OS. Description: In vitro cell proliferation inhibition assay (CellTiter-Glo, low amino acid media). The test is classed as cell-based. Conditions: McCoy's 5A low amino acid media; for inhibition at 0.1 µM: Homo sapiens, U2OS, 72 h, cell proliferation inhibitory rate; for inhibitory rate: 72 hr. The procedure: A cell suspension (40 μL) (1000 cells/well) of osteosarcoma cell line U-2-OS obtained from ATCC (American Type Culture Collection) was seeded on a 384 plate using McCoy's 5A low amino acid media (amino acid content 25%). The seeded cells were incubated (37° C., 5% CO2) overnight to 24 hr at the longest. Each example compound was dissolved (10 mM) in DMSO, delivered to wells by using TECAN HP D300 (TECAN), and the plate was incubated for 72 hr (37° C., 5% CO2). A well without addition of compound was treated similarly as a control group. Celltiter-Glo (registered trade mark) Luminescent Cell Viability Assay reagent (Promega KK) equilibrated at room temperature was added (40 μL/well) to cells in each well before compound treatment (untreated group) and 72 hours after compound treatment. After incubation for 10 min, cell proliferation inhibitory rate was measured by the amount of ATP which is a cell viability marker. Luminescence of cells showing ATP amount was measured using ARVO MX (PerkinElmer). Based on the luminescence values of the untreatment group, the control group without addition of Example compound solution, and the treatment group with addition of Example compound, the cell proliferation inhibitory rate (%) of the test compound at a compound concentration of 100 nM was calculated by the following formula and the results thereof are shown in Tables 4-1, 4-2. Inhibitory rate (%)=(1−(luminescence value of treatment group−luminescence value of untreatment group)÷(luminescence value of control group−luminescence value of untreatment group))×100
For orientation: In ATP-based viability assays light output follows the ATP content of the culture.

T1 sequence (Q9P2K8 whole entry): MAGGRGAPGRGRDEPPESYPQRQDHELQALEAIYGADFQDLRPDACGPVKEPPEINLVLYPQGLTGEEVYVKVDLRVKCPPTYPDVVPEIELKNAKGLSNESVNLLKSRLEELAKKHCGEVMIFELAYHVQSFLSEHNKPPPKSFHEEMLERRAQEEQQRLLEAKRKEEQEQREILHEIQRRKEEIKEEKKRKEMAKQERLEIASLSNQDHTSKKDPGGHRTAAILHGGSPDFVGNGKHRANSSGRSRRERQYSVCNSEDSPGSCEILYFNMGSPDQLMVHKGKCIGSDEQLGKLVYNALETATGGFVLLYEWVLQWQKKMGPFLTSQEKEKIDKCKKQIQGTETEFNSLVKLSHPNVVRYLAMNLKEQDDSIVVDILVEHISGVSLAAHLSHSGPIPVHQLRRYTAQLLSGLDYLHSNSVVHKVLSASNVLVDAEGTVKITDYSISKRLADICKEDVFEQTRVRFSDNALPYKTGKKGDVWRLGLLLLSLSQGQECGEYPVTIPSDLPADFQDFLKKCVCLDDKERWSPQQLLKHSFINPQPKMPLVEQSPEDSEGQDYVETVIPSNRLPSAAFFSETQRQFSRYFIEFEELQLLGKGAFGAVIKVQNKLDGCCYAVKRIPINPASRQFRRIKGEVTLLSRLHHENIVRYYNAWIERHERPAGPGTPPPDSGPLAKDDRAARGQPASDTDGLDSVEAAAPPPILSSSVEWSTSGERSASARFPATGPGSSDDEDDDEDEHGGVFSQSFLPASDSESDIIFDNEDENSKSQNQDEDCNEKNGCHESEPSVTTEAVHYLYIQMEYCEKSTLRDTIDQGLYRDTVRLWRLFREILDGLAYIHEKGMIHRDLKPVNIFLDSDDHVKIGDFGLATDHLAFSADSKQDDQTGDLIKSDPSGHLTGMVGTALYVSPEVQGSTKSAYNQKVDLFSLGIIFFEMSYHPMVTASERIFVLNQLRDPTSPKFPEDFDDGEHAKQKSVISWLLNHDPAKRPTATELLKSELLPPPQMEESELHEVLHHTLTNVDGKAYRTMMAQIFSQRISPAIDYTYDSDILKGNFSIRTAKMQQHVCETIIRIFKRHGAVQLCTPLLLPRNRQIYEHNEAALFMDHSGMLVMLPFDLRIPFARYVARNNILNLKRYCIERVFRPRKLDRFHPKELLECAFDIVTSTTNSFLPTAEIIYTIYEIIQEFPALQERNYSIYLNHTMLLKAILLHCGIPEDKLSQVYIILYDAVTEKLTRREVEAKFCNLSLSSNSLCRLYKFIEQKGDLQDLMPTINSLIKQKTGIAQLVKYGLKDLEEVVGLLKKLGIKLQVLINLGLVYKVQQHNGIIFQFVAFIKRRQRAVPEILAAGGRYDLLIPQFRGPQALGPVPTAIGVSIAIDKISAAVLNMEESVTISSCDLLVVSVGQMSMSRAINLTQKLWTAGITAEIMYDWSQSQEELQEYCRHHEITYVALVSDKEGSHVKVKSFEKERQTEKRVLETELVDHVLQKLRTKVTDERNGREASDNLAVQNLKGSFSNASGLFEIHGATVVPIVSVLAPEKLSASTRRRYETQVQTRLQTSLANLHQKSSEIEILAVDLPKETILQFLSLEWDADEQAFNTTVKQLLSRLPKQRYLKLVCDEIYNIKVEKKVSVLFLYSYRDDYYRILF

Regarding `Nc1ncc(C#Cc2c(F)ccc(NS(=O)(=O)c3cc(Cl)cn4c(Cl)cnc34)c2F)cn1` [Example 165, N-(3-((2-aminopyrimidin-5-yl)ethynyl)-2,4-difluorophenyl)-3,6-dichloroimidazo[1,2-a]pyridine-8-sulfonamide], the inhibition at 3 µM in test [1] (Table 3-2) stood at 96%. For the same compound, the inhibition at 0.1 µM in test [2] (Table 4-2) worked out at 27%.
Regarding `Cc1ccc(Cl)cc1S(=O)(=O)Nc1ccc(F)c(C#Cc2cnc(N)c(C)n2)c1F` [Example 31, N-(3-((5-amino-6-methylpyrazin-2-yl)ethynyl)-2,4-difluorophenyl)-5-chloro-2-methylbenzenesulfonamide], the inhibition at 3 µM in test [1] (Table 3-1) worked out at 99%. Besides, the inhibition at 0.1 µM in test [2] (Table 4-1) stood at 53%.
In the case of `O=S(=O)(Nc1ccc(F)c(C#Cc2cnc(NC3COC3)nn2)c1F)c1cc(Cl)cc(CO)c1Cl` [Example 179, 2,5-dichloro-N-(2,4-difluoro-3-((3-(oxetan-3-ylamino)-1,2,4-triazin-6-yl)ethynyl)phenyl)-3-(hydroxymethyl)benzenesulfonamide], the inhibition at 3 µM in test [1] (Table 3-2) was 102%. In test [2] (Table 4-2), the inhibition at 0.1 µM came out at 75%.
In the case of `O=S(=O)(Nc1ccc(F)c(C#Cc2cnc3[nH]ncc3c2)c1F)c1c(Cl)c(Cl)cc(Cl)c1Cl` [Example 23, 2,3,5,6-tetrachloro-N-(2,4-difluoro-3-(1H-pyrazolo[3,4-b]pyridin-5-ylethynyl)phenyl)benzenesulfonamide], the inhibition at 3 µM in test [1] (Table 3-1) amounted to 100%. The inhibition at 0.1 µM in test [2] (Table 4-1) stood at 72%.
Take `Nc1ncc(C#Cc2c(F)ccc(NS(=O)(=O)c3cc(Cl)cc4c3OCC4O)c2F)cn1` (centres unmarked) [Example 159, N-(3-((2-aminopyrimidin-5-yl)ethynyl)-2,4-difluorophenyl)-5-chloro-3-hydroxy-2,3-dihydro-1-benzofuran-7-sulfonamide]: in test [1] (Table 3-2), the inhibition at 3 µM was found to be 99%. Further, the inhibition at 0.1 µM in test [2] (Table 4-2) stood at 60%.
Regarding `CNc1ncc(Cl)cc1S(=O)(=O)Nc1ccc(F)c(C#Cc2cnc(N)nc2)c1F` [Example 171, N-(3-((2-aminopyrimidin-5-yl)ethynyl)-2,4-difluorophenyl)-5-chloro-2-(methylamino)pyridine-3-sulfonamide], the inhibition at 3 µM in test [1] (Table 3-2) was 100%. In addition, the inhibition at 0.1 µM in test [2] (Table 4-2) stood at 82%.
On to `C[C@H](CO)Nc1ncc(C#Cc2c(F)ccc(NS(=O)(=O)c3cc(Cl)cc4c3OCC4O)c2F)cn1` (stereo partly drawn) [Example 184, 5-chloro-N-(2,4-difluoro-3-((2-(((2R)-1-hydroxypropan-2-yl)amino)pyrimidin-5-yl)ethynyl)phenyl)-3-hydroxy-2,3-dihydro-1-benzofuran-7-sulfonamide], for which, in test [1] (Table 3-2), the inhibition at 3 µM was 99%. This compound also gave an inhibitory rate in test [2] (Table 4-2) of 59%.
Turning to `COc1ncc(Cl)cc1S(=O)(=O)Nc1ccc(F)c(C#Cc2cnc3[nH]ncc3c2)c1F` [Example 5, 5-chloro-N-(2,4-difluoro-3-(1H-pyrazolo[3,4-b]pyridin-5-ylethynyl)phenyl)-2-methoxypyridine-3-sulfonamide], the inhibition at 3 µM in test [1] (Table 3-1) turned out to be 99%. Besides, in test [2] (Table 4-1), the inhibition at 0.1 µM amounted to 91%.
`COc1c(CO)cc(Cl)cc1S(=O)(=O)Nc1ccc(F)c(C#Cc2cnc(NCCO)nc2)c1F` [Example 149, 5-chloro-N-(2,4-difluoro-3-((2-((2-hydroxyethyl)amino)pyrimidin-5-yl)ethynyl)phenyl)-3-(hydroxymethyl)-2-methoxybenzenesulfonamide]: in test [1] (Table 3-2), the inhibition at 3 µM amounted to 99%. The inhibition at 0.1 µM in test [2] (Table 4-2) is 70%.
For `Cc1ncc(Cl)cc1S(=O)(=O)Nc1ccc(F)c(C#Cc2cnc(N[C@H]3CC[C@H](O)CC3)nc2)c1F` [Example 188, 5-chloro-N-(2,4-difluoro-3-((2-((trans-4-hydroxycyclohexyl)amino)pyrimidin-5-yl)ethynyl)phenyl)-2-methylpyridine-3-sulfonamide], in that order: 100% and 77%.
On the same counts, the results for `COc1c(CO)cc(Cl)cc1S(=O)(=O)Nc1ccc(F)c(C#Cc2cnc(NC3CC3)nn2)c1F` [Example 168, 5-chloro-N-(3-((3-(cyclopropylamino)-1,2,4-triazin-6-yl)ethynyl)-2,4-difluorophenyl)-3-(hydroxymethyl)-2-methoxybenzenesulfonamide] are 99% and 57%.
On to `O=S(=O)(Nc1ccc(F)c(C#Cc2cnc3[nH]ncc3c2)c1F)c1cc(Cl)cc(Cl)c1Cl` [Example 20, 2,3,5-trichloro-N-(2,4-difluoro-3-(1H-pyrazolo[3,4-b]pyridin-5-ylethynyl)phenyl)benzenesulfonamide], for which the inhibition at 3 µM in test [1] (Table 3-1) is 100%. Moreover, the inhibition at 0.1 µM in test [2] (Table 4-1) came to 63%.
`Nc1ncc(C#Cc2c(F)ccc(NS(=O)(=O)c3cc(Cl)ccc3Cl)c2F)cn1` [Example 17, N-(3-((2-aminopyrimidin-5-yl)ethynyl)-2,4-difluorophenyl)-2,5-dichlorobenzenesulfonamide]: the inhibition at 3 µM in test [1] (Table 3-1) was found to be 99%. The same compound yielded an inhibitory rate in test [2] (Table 4-1) of 73%.
For the compound `COc1c(CO)cc(Cl)cc1S(=O)(=O)Nc1ccc(F)c(C#Cc2cnc(N[C@H](C)CO)nc2)c1F` [Example 150, 5-chloro-N-(2,4-difluoro-3-((2-(((2R)-1-hydroxypropan-2-yl)amino)pyrimidin-5-yl)ethynyl)phenyl)-3-(hydroxymethyl)-2-methoxybenzenesulfonamide], in test [1] (Table 3-2), the inhibition at 3 µM turned out to be 99%. Further, the inhibition at 0.1 µM in test [2] (Table 4-2) was 77%.
For `O=S(=O)(Nc1ccc(F)c(C#Cc2cnc3[nH]ncc3c2)c1F)c1cc(Cl)cc2c1OCC2` [Example 8, 5-chloro-N-(2,4-difluoro-3-(1H-pyrazolo[3,4-b]pyridin-5-ylethynyl)phenyl)-2,3-dihydro-1-benzofuran-7-sulfonamide], the inhibition at 3 µM in test [1] (Table 3-1) is 100%. The inhibition at 0.1 µM in test [2] (Table 4-1) is 78%.
With `COc1c(CO)cc(Cl)cc1S(=O)(=O)Nc1ccc(F)c(C#Cc2cnc(NC3COC3)nc2)c1F` [Example 140, 5-chloro-N-(2,4-difluoro-3-((2-(oxetan-3-ylamino)pyrimidin-5-yl)ethynyl)phenyl)-3-(hydroxymethyl)-2-methoxybenzenesulfonamide], the inhibition at 3 µM in test [1] (Table 3-2) turned out to be 99%. Also, the inhibition at 0.1 µM in test [2] (Table 4-2) was determined as 76%.
With `Cc1ccc(Cl)cc1S(=O)(=O)Nc1ccc(F)c(C#Cc2cnc3[nH]ncc3c2)c1F` [Example 15, 5-chloro-N-(2,4-difluoro-3-(1H-pyrazolo[3,4-b]pyridin-5-ylethynyl)phenyl)-2-methylbenzenesulfonamide], the inhibition at 3 µM in test [1] (Table 3-1) came out at 100%. Also, the inhibition at 0.1 µM in test [2] (Table 4-1) was determined as 75%.
As for `C[C@H](CO)Nc1ncc(C#Cc2c(F)ccc(NS(=O)(=O)c3cc(Cl)cc(CO)c3Cl)c2F)nn1` [Example 178, 2,5-dichloro-N-(2,4-difluoro-3-((3-(((2R)-1-hydroxypropan-2-yl)amino)-1,2,4-triazin-6-yl)ethynyl)phenyl)-3-(hydroxymethyl)benzenesulfonamide], the inhibition at 3 µM in test [1] (Table 3-2) was 100%. In test [2] (Table 4-2), the inhibition at 0.1 µM is 74%.
As for `COc1c(CO)cc(Cl)cc1S(=O)(=O)Nc1ccc(F)c(C#Cc2cnc(NC3CCOC3)nc2)c1F` (centres unmarked) [Example 141, 5-chloro-N-(2,4-difluoro-3-((2-(tetrahydrofuran-3-ylamino)pyrimidin-5-yl)ethynyl)phenyl)-3-(hydroxymethyl)-2-methoxybenzenesulfonamide], in test [1] (Table 3-2), the inhibition at 3 µM was found to be 99%. Further, in test [2] (Table 4-2), the inhibition at 0.1 µM amounted to 75%.
